Data taken from patent US20160221932A1, “Methods and Uses of Melatonin Ligands” (priority 2013, published 2016).
“Also recorded” adds a separate entry of the source. Each block holds one compound with its values, some of them ahead of it.

Key:
[1] = system: rats with L5-L6 spinal nerves ligation; test: L5-L6 spinal nerves ligature model, von Frey paw withdrawal threshold; assay type: in vivo, rat; conditions: for AUC of the antiallodynic effect across 8 h: mean±SEM, VEH 36.24±1.8 g; for AUC antiallodynic effect compared with GBP 100 mg/kg / AUC antiallodynic effect compared with MLT 150 mg/kg: doses of 20 and 40 mg/kg; for tactile allodynia in L5-L6 nerve ligated rats / analgesic effect in allodynic rats: summary statement; for tactile allodynia in L5-L6 nerve ligated rats: hindpaw withdrawal threshold to mechanical stimulation; for analgesic effect in allodynic rats: hindpaw withdrawal threshold vs untreated allodynic rats
Description: Animals: Wistar rats (150-250 g, Charles-River Saint-Constant, Quebec, Canada) were used for the formalin test, hot plate test and L5-L6 spinal nerves ligature model. The animals were housed at constant room temperature and humidity under a 12 h light/dark cycle (lights on at 7 AM). Food and water were available ad libitum.
L5-L6 Spinal Nerves Ligature: Nerve injury results in abnormal pain perception, known as neuropathic pain, which is associated with hyperalgesia (high pain sensibility) and allodynia (pain perception induced by innocuous stimuli) (Campbell and Meyer, 2006). The rat model for neuropathic pain develop by Kim and Chung (Kim and Chung, 1992) was used in which the L5 and L6 spinal nerves were ligated and two weeks later allodynia was measured by paw stimulation with von Frey filaments. Briefly, animals were anesthetized with a mixture of ketamine/xylazine/acepromazine (i.p.). Following surgical preparation and exposure of the dorsal vertebral column, the left L5 and L6 spinal nerves were exposed and tightly ligated with 3.0 chromic catgut suture distal to the dorsal root ganglion. For sham-operated rats, the nerves were exposed but not ligated. The incisions were closed using 3.0 vicryl sutures, and the animals were allowed to recover for 13 days.
On day 14 after surgery, rats were singularly placed in a test chamber (clear plastic, wire mesh-bottomed cage) and allowed to acclimatize for 30-40 min. Von Frey filaments (Stoelting, Wood Dale, Ill., USA) were used to measure the 50% paw withdrawal threshold using the up and down method by (Chaplan et al., 1994). […] Lifting of the paw indicated a positive response and prompted the use of the next weaker filament, whereas absence of paw withdrawal after 5 s indicated a negative response and prompted the next filament of increasing weight. This paradigm continued for four more measurements after the initial change of the behavioral response, or until five consecutive negative (assigned a score of 15 g), or four consecutive positive (assigned a score of 0.25 g) responses. The resulting score were used to calculate the 50% response threshold by using the formula proposed by Dixon et al., 1980.
Allodynia was considered to be present when paw withdrawal thresholds were less than 4 g. (Chaplan et al., 1994). All nerve-ligated rats were verified to be allodynic, responding to a stimulus of less than 4 g. Rats without allodynia were excluded. Following the determination of the basal response, tactile allodynia was assessed at 0.5, 1, 2, 3, 4, 5, 6, 7 and 8 h post-administration for each treatment below described.
[…] […] Another group of rats received only the vehicle (VEH) consisting on a 70% DMSO/saline solution (0.9% NaCl). All treatments were administered in a single subcutaneous injection with a volume of 1 ml. Rats were tested at 0 h (basal withdrawal threshold) and 0.5, 1, 2, 3, 4, 5, 6, 7 and 8 h post-treatment administration.
Statistical Analysis: Data analysis was done using SigmaPlot 12 (Systat Software, Inc.). Two-way ANOVA for repeated measures was used to analyze data from L5-L6 models using treatments (between) and testing time (within) as factors. One-way ANOVA was used to analyze AUC in the L5-L6 spinal nerves ligation model. One-way ANOVA was used for formalin and hot-plate tests. Post-hoc analyses were performed using Bonferroni t-test comparisons or Student-Newman-Keuls (SNK) test. All data are expressed as mean±Standard Error of the Mean (SEM). P<0.05 was considered significant.

[2] = target: T1, human MT1 receptor (Homo sapiens, UniProt P48039); test: 2-[125I]iodomelatonin competition binding, human MT1 in CHO cells; conditions: human MT1 stably expressed in CHO cells, calculated from IC50 by Cheng and Prusoff
T1 construct: expressed in transfected cells

[3] = 20 mg/kg s.c., at 3 h (5b) or 5 h (5p) post-administration
[4] = 40 mg/kg s.c., at 2 h (5b) or 5 h (5p) post-administration

T1 sequence (P48039 whole entry): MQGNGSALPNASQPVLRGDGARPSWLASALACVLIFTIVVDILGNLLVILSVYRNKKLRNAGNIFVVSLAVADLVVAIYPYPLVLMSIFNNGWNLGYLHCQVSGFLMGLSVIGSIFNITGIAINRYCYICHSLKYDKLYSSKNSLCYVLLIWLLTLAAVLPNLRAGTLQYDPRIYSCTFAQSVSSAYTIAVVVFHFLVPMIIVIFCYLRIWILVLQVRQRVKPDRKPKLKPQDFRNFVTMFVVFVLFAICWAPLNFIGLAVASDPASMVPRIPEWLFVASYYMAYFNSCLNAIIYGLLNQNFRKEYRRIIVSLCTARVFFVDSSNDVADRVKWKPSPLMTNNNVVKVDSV

Ki ([2]; read-out: MT1 pKi (converted)): 178 nM
SMILES: CC(=O)NCCN(c1ccc(F)cc1)c1cccc(Br)c1 [5p, N-{2-[(3-Bromophenyl)-4-fluorophenylamino]ethyl}acetamide]
AUC of the antiallodynic effect across 8 h ([1]; 5 mg/kg s.c.): 89.03 ± 6.33 g | duration of effect on paw withdrawal threshold, post-administration ([1]; 10 mg/kg s.c.): up to 3 h | start of increase of paw withdrawal threshold, post-administration ([1]; 10 mg/kg s.c.): 1 h | AUC of the antiallodynic effect across 8 h ([1]; 10 mg/kg s.c.): 127.75 ± 12.08 g | duration of effect on paw withdrawal threshold, post-administration ([1]; 20 mg/kg s.c.): up to 6 h | reduction of the mechanical allodynia above the threshold (4 g) ([1]; 20 mg/kg s.c.): reduction of the mechanical allodynia | start of increase of paw withdrawal threshold, post-administration ([1]; 20 mg/kg s.c.): 1 h | highest increase in paw withdrawal threshold [1, 3]: 394 % from basal | AUC of the antiallodynic effect across 8 h ([1]; 20 mg/kg s.c.): 245.9 ± 19.9 g | duration of effect on paw withdrawal threshold, post-administration ([1]; 40 mg/kg s.c.): up to 6 h | reduction of the mechanical allodynia above the threshold (4 g) ([1]; 40 mg/kg s.c.): reduction of the mechanical allodynia | start of increase of paw withdrawal threshold, post-administration ([1]; 40 mg/kg s.c.): 1 h | highest increase in paw withdrawal threshold [1, 4]: 427.65 % from basal | AUC of the antiallodynic effect across 8 h ([1]; 40 mg/kg s.c.): 230.33 ± 17.69 g | AUC antiallodynic effect compared with GBP 100 mg/kg [1]: comparable | AUC antiallodynic effect compared with MLT 150 mg/kg [1]: greater antiallodynic effect | tactile allodynia in L5-L6 nerve ligated rats [1]: reduced allodynia; also recorded: reversed tactile allodynia | analgesic effect in allodynic rats [1]: increased the analgesic effect

MT1 pKi [2]: 8.38
SMILES: COc1cccc(N(CCNC(C)=O)c2ccccc2)c1 [5b, N-{2-[(3-Methoxyphenyl)-phenylamino]ethyl}acetamide]
AUC of the antiallodynic effect across 8 h ([1]; 5 mg/kg s.c.): 81.11 ± 4.8 g | AUC of the antiallodynic effect across 8 h ([1]; 10 mg/kg s.c.): 70.24 ± 4.23 g | duration of effect on paw withdrawal threshold, post-administration ([1]; 20 mg/kg s.c.): up to 5 h | reduction of the mechanical allodynia above the threshold (4 g) ([1]; 20 mg/kg s.c.): reduction of the mechanical allodynia above the threshold | start of increase of paw withdrawal threshold, post-administration ([1]; 20 mg/kg s.c.): 1 h | highest increase in paw withdrawal threshold [1, 3]: 419 % from basal | AUC of the antiallodynic effect across 8 h ([1]; 20 mg/kg s.c.): 219.12 ± 24.13 g | duration of effect on paw withdrawal threshold, post-administration ([1]; 40 mg/kg s.c.): ≤ 6 h | reduction of the mechanical allodynia above the threshold (4 g) ([1]; 40 mg/kg s.c.): reduction of the mechanical allodynia above the threshold | start of increase of paw withdrawal threshold, post-administration ([1]; 40 mg/kg s.c.): 0.5 h | highest increase in paw withdrawal threshold [1, 4]: 395 % from basal | AUC of the antiallodynic effect across 8 h ([1]; 40 mg/kg s.c.): 220.13 ± 13.65 g | AUC antiallodynic effect compared with GBP 100 mg/kg [1]: comparable | AUC antiallodynic effect compared with MLT 150 mg/kg [1]: superior to MLT | tactile allodynia in L5-L6 nerve ligated rats [1]: reversed tactile allodynia; also recorded: reduced allodynia | analgesic effect in allodynic rats [1]: increased the analgesic effect
